In brackets after ≈: the same amount, converted by molar mass.
Assay: Oil evaluation: solubility behavior of oleoyl-estrone, 60 mg/g in single oils
Format: physicochemical
Settings: for solubility at 96 h: oil or lipid, after 96 hr, more oil added
Description: An oil evaluation was done to determine the solubility behavior of oleoyl-estrone as a function of type of oil, concentration and temperature. The solubility of oleoyl-estrone was evaluated at concentrations of 60 mg/g and 200 mg/g. […]

[1] = 60 mg/g in Canola at RT (about 22° C.)
[2] = 60 mg/g in Captex 300-6C at RT (about 22° C.)
[3] = 60 mg/g in Captex 300 EP at RT (about 22° C.)
[4] = 60 mg/g in Corn at RT (about 22° C.)
[5] = 60 mg/g in Labrafac at RT (about 22° C.)
[6] = 60 mg/g in Labrasol at RT (about 22° C.)
[7] = 60 mg/g in Olive at RT (about 22° C.)
[8] = 60 mg/g in Safflower at RT (about 22° C.)
[9] = 60 mg/g in Sesame at RT (about 22° C.)
[10] = 60 mg/g in Soybean at RT (about 22° C.)

Solubility Cycled to 5° C. after 96 hr (60 mg/g in Canola): Dissolved
Solubility After 24 hr [1]: Dissolved
Solubility After 96 hr [1]: Dissolved
Solubility Cycled to 5° C. after 96 hr (60 mg/g in Captex 300-6C): Dissolved
Solubility After 24 hr [2]: Dissolved
Solubility After 96 hr [2]: Dissolved
Solubility Cycled to 5° C. after 96 hr (60 mg/g in Captex 300 EP): Dissolved
Solubility After 24 hr [3]: Dissolved
Solubility After 96 hr [3]: Dissolved
Solubility Cycled to 5° C. after 96 hr (60 mg/g in Corn): Dissolved
Solubility After 24 hr [4]: Dissolved
Solubility After 96 hr [4]: Dissolved
Solubility Cycled to 5° C. after 96 hr (60 mg/g in Labrafac): Dissolved
Solubility After 24 hr [5]: Dissolved
Solubility After 96 hr [5]: Dissolved
Solubility Cycled to 5° C. after 96 hr (60 mg/g in Labrafil 1944 CS): Dissolved
Solubility After 96 hr (60 mg/g in Labrafil 1944 CS at RT (about 22° C.)): NOT Dissolved more oil
Solubility Cycled to 5° C. after 96 hr (60 mg/g in Labrafil M 125CS): Dissolved
Solubility After 96 hr (60 mg/g in Labrafil M 125CS at RT (about 22° C.)): NOT Dissolved more oil
Solubility After 24 hr [6]: Dissolved
Solubility After 96 hr [6]: Dissolved
Solubility Cycled to 5° C. after 96 hr (60 mg/g in Olive): Dissolved
Solubility After 24 hr [7]: Dissolved
Solubility After 96 hr [7]: Dissolved
Solubility Cycled to 5° C. after 96 hr (60 mg/g in Safflower): Dissolved
Solubility After 24 hr [8]: Dissolved
Solubility After 96 hr [8]: Dissolved
Solubility Cycled to 5° C. after 96 hr (60 mg/g in Sesame): Dissolved
Solubility After 24 hr [9]: Dissolved
Solubility After 96 hr [9]: Dissolved
Solubility Cycled to 5° C. after 96 hr (60 mg/g in Soybean): Dissolved
Solubility After 24 hr [10]: Dissolved
Solubility After 96 hr [10]: Dissolved
solubility at 96 h (Labrafil 1944 CS (oil), in Labrafil 1944 CS at RT (about 22° C.)): ~5000 µg/mL (≈ 9.35 mM)
solubility at 96 h (Labrafil M 125CS (oil), in Labrafil M 125CS at RT (about 22° C.)): ≤ 3000 µg/mL
Compound: CCCCCCCC/C=C\CCCCCCCC(=O)Oc1ccc2c(c1)CC[C@@H]1[C@@H]2CC[C@]2(C)C(=O)CC[C@@H]12 [oleoyl-estrone, [3(Z)]-3-[(1-oxo-9-octadecenyl)oxy]-estra-1,3,5(10)-trien-17-one]

Reference: patent US20080261936A1, “METHODS OF REDUCING THE BODY WEIGHT OF A SUBJECT BY ADMINISTERING A FATTY ACID ESTER OF AN ESTROGEN OR ESTROGEN DERIVATIVE IN AN OIL AND COMPOSITIONS CONTAINING THE SAME” (Manhattan Pharmaceuticals, Inc., priority 2006, published 2008)
